Assay results reported in BindingDB's records for doi:10.1021/jm040099a (Johnson & Johnson Pharmaceutical, 2005).
pIC50: −log10 of the molar value.

Target: Cyclin-dependent kinase/G2/mitotic-specific cyclin- 1 (Homo sapiens, UniProt P06493)
Experiment: Kinase Inhibition Assay
Settings: pH 8; 30 °C
Description: (§1) The enzyme was assayed with a biotinylated peptide substrate and test compounds in the presence of 5 uM ATP/[gamma-33P]ATP in a streptavidin coated FlashPlate (Perkin-Elmer, Boston, MA). Inhibition of the enzymatic activity due to the compound was measured by observing a reduced amount of 33P-gamma-ATP incorporated into the immobilized peptide relative to untreated controls. Linear regression analysis of the percent of inhibition by the test compound was used to calculate IC50 values.

Sequence of Cyclin-dependent kinase/G2/mitotic-specific cyclin- 1 (P06493 whole entry): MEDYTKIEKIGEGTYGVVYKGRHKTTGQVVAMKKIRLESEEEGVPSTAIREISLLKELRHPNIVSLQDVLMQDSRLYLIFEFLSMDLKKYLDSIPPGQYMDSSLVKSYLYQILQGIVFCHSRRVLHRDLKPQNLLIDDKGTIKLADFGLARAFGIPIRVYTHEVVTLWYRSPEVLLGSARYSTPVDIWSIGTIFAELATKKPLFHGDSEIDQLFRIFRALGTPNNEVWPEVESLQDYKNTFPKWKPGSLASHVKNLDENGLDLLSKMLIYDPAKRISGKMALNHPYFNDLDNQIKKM
Sequence of Cyclin-dependent kinase/G2/mitotic-specific cyclin- 1 (P14635 whole entry, further chain): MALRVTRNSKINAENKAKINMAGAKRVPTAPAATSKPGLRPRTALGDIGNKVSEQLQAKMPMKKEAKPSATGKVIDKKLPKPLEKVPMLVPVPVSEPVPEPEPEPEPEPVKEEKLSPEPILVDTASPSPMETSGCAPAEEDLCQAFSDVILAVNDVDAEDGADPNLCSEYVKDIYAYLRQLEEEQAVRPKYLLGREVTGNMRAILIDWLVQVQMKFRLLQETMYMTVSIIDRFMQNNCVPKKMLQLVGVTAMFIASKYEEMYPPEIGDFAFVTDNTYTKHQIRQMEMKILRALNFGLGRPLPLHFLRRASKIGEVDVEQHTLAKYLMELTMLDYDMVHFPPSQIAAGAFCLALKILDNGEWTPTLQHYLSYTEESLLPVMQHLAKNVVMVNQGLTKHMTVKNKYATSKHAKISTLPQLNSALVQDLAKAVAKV

pIC50, < 5.00:
OCCCNc1cncc(-c2ncncc2Nc2cccc(Cl)c2)c1 [3-[[5-[5-[(3-Chlorophenyl)amino]-4-pyrimidinyl]-3-pyridinyl]amino]-1-propanol]

Target: Vascular endothelial growth factor receptor 2 (Rattus norvegicus, UniProt O08775)
Sequence (O08775 whole entry): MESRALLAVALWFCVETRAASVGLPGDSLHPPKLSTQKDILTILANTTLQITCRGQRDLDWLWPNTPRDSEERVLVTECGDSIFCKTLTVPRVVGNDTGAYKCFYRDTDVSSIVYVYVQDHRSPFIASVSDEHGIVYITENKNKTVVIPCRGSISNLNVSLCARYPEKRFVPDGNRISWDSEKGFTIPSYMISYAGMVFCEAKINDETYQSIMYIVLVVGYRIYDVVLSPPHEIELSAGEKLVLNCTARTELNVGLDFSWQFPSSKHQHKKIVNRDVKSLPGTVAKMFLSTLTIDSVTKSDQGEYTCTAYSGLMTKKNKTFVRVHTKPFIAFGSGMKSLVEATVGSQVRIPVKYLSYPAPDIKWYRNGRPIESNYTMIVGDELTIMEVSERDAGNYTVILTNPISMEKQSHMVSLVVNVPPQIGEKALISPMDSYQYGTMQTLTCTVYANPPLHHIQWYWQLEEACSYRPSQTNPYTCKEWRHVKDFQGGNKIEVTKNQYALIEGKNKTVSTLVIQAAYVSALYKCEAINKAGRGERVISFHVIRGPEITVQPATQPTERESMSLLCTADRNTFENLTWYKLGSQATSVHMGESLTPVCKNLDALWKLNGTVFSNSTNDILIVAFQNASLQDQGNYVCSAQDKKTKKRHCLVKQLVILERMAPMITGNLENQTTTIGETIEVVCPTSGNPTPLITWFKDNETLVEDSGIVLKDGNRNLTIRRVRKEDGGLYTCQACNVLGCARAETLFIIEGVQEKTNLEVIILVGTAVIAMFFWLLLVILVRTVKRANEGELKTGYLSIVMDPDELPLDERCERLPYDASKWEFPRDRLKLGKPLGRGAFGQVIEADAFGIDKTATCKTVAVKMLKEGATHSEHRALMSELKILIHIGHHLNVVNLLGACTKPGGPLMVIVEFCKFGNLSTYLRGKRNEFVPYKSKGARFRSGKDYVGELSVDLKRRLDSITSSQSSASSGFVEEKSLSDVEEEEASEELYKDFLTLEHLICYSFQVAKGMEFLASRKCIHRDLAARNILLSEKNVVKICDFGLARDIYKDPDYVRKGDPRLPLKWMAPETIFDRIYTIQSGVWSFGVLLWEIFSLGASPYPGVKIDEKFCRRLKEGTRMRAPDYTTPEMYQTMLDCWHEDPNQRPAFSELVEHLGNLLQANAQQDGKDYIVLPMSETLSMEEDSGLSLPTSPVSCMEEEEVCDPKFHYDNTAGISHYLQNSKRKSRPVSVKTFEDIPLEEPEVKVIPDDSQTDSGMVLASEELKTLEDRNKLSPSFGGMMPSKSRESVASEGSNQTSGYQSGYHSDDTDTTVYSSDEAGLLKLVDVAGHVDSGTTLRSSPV
Experiment: Kinase Inhibition Assay
Settings: not given
Description: as §1

pIC50, < 5.00:
OCCCNc1cncc(-c2ncc(Nc3cccc(Cl)c3)cn2)c1 [3-[(5-{5-[(3-chlorophenyl)amino]pyrimidin-2-yl}pyridin-3-yl)amino]propan-1-ol], OCCCNc1cncc(-c2cc(Nc3cccc(Cl)c3)ncn2)c1 [3-[(5-{6-[(3-chlorophenyl)amino]pyrimidin-4-yl}pyridin-3-yl)amino]propan-1-ol], OCCCNc1cccc(-c2cncc(Nc3cccc(Cl)c3)n2)n1 [3-[(6-{6-[(3-chlorophenyl)amino]pyrazin-2-yl}pyridin-2-yl)amino]propan-1-ol], OCCCNc1cncc(-c2ncncc2Nc2cccc(Cl)c2)c1 [3-[[5-[5-[(3-Chlorophenyl)amino]-4-pyrimidinyl]-3-pyridinyl]amino]-1-propanol], OCCCNc1cncc(-c2cnc(Nc3cccc(Cl)c3)cn2)c1 [3-[[5-[5-[(3-chlorophenyl)amino]pyrazinyl]-3-pyridinyl]amino]-1-propanol], OCCCNc1ccc(-c2cncc(Nc3cccc(Cl)c3)n2)nc1 [3-{[6-[6-((3-Chlorophenyl)amino)pyrazin-2-yl]pyridin-3-yl]amino}propan-1-ol]
